Experimental data as given in publication PMC7072352, “Venetoclax, a BCL-2 Inhibitor, Enhances the Efficacy of Chemotherapeutic Agents in Wild-Type ABCG2-Overexpression-Mediated MDR Cancer Cells” (Cancers, 2020).

Biological target: T1, ABCG2 (breast cancer resistance protein, BCRP) (Homo sapiens, UniProt Q9UNQ0)
T1 construct: wild-type ABCG2 (R482) in overexpressing cell membranes
T1 sequence (Q9UNQ0 1-655): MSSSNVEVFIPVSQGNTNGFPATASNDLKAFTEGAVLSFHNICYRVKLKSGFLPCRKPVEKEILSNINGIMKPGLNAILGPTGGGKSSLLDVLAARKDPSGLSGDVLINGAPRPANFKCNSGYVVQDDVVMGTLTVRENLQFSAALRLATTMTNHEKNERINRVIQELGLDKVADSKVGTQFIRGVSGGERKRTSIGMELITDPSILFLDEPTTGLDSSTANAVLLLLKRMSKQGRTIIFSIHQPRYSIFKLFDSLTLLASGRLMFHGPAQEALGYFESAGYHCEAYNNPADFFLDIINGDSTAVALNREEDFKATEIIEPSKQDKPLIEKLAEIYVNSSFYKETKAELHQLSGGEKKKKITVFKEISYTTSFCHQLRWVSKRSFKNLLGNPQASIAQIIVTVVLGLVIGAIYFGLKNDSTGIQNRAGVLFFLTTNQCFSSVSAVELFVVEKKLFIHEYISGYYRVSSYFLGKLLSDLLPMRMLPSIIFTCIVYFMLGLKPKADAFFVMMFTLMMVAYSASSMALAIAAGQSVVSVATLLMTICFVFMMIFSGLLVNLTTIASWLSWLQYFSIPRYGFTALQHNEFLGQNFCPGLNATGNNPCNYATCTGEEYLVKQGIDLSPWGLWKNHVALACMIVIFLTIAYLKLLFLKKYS
Test: vanadate-sensitive ATPase assay in ABCG2-overexpressing cell membranes; [3H]-mitoxantrone accumulation and efflux in cells
Format: biochemical

With `CC1(C)CCC(CN2CCN(c3ccc(C(=O)NS(=O)(=O)c4ccc(NCC5CCOCC5)c([N+](=O)[O-])c4)c(Oc4cnc5[nH]ccc5c4)c3)CC2)=C(c2ccc(Cl)cc2)C1` [venetoclax] the IC50 was 4.78 µM.
